Data reported in US10370697B2, “Propeptide-luciferase fusion proteins and methods of use thereof” (THE BROAD INSTITUTE, INC., priority 2011, dated 2019).

Tests used:
[1] = system: MIN6 cells expressing proinsulin-luciferase construct; experiment: High-throughput luciferase secretion screen, proinsulin-luciferase reporter, 384-well; format: cell-based, mouse; settings: for Z-score / Z-score With Glucose / Z-score Without Glucose: luciferase secretion, 30 μM, 1 hour; for Z-score: 1600 compound screen, Z-score vs DMSO wells; for Z-score / Z-score With Glucose: 100 mg/dL glucose; for Z-score With Glucose / Z-score Without Glucose: repeated 1600-compound screen; for Z-score Without Glucose: absence of glucose
Protocol: MIN6 and INS-1E cells were expanded to 80% confluence in their respective growth media, washed once in PBS and incubated for 1 hour at 37° C. in KRB without glucose. Cells were then dissociated, spun at 300 g×2 minutes, resuspended in fresh KRB without glucose and filtered through 40 μm mesh (Becton Dickenson®). Next, the cells were counted and diluted in KRB to 1×10^6 cells per mL, and glucose was added as required for each experiment. Cells were then seeded in 384-well format, 3×10^4 cells in 30 μL per well, using a Multidrop™ Combi device (Thermo Scientific®, Billerica, Mass.). Compounds from the Pharmakon 1600 Collection (Microsource Discovery Systems™, Gaylordsville, Conn.) were pinned into each well using a CyBio® Vario (CyBio®, Jena, Germany) to a final concentration of 30 μM, and the plates were then incubated for 1 hour at 37° C. The plates were then spun at 300 g×2 minutes and the supernatant transferred to a new 384-well plate. Coelenterazine substrate was then added to a final concentration of 20 μM and luciferase activity determined using a standard plate reader (Biotek®).
For the high-throughput screens, the Z-score of each test compound was calculated using the formula: […]
where x is the log-transformed, signal decay-adjusted luciferase signal from a compound-treated well, μ is the mean of the log-transformed luciferase signals from the DMSO-treated wells on the same plate, and a is the standard deviation of the log-transformed luciferase signals of the DMSO-treated wells across all plates (to allow for cross-plate comparison of compounds). Prior to calculating the Z-score, a row-based correction factor was applied to all luciferase readings to adjust for the rapid signal decay occurring during the course of each 384-well plate read. The signal decay was modeled as a logarithmic function (Microsoft® Excel) and then used to adjust each well's luciferase reading based on the corresponding row within the plate.
We performed a pilot chemical screen at a substimulatory glucose concentration (100 mg/dL) in MIN6 cells using a collection of 1600 known bioactive small molecules, with the sulfonylurea glipizide included as a positive control. […] Several commonly used drugs without known links to beta-cell function caused significant increases in luciferase secretion in our assay (compounds summarized in Table 1).
As there is a well-recognized need for glucose-dependent small-molecule agonists of insulin secretion, we subsequently evaluated whether our assay could be adapted to find such secretagogues. We repeated the 1600-compound screen in the presence and absence of a substimulatory glucose concentration (100 mg/dL).

[2] = system: MIN6 mouse beta cell line; experiment: Luciferase secretion, preproamylin-Gaussia luciferase (PAG) reporter; format: cell-based; settings: 1 hour at the indicated glucose concentrations; 25 uM glipizide, 50 uM IBMX, 20 uM forskolin, 40 mM KCl, 20 uM PMA
Protocol: FIG. 4 is a graph showing the pre-proamylin-luciferase reporter in MIN6 cells responds as predicted to known insulin secretagogues. Cells were treated for 1 hour at the indicated glucose concentrations with either DMSO, 25 uM glipizide, 2.5 uM glucokinase activator (GKA), 50 uM 3-isobutyl-1-methylxanthine (IBMX), 20 uM forskolin, 40 mM potassium chloride (KCl), or 20 uM phorbol myristate acetate (PMA).
For standard secretion assays, MIN6 and INS-1E cells were plated in 96-well format at a density of 4×10^4 cells per well in 100 μL of their respective growth media and incubated overnight at 37° C. in 5% CO2 to allow attachment. Cells were washed once with PBS and incubated for 1 hour at 37° C. in sterile, 0.45 μm-filtered Krebs Ringer Buffer (KRB) containing 138 mM NaCl, 5.4 mM KCl, 2.6 mM MgCl2, 2.6 mM CaCl2, 5 mM NaHCO3, 10 mM HEPES and 5 g/L bovine serum albumin (Sigma®). The cells were then washed in KRB once and stimulated for 1 hour in 100 μL of fresh KRB containing varying amounts of glucose and compounds. The insulin concentration was determined using an insulin ELISA (ALPCO®) with the supplied protocol. Luciferase activity was determined from the same samples by adding the coelenterazine substrate (Nanolight®) to the supernatant to a final concentration of 20 μM and reading on a standard plate reader (Biotek™, Winooski, Vt.).
The preproamlyin constructs was introduced into the MIN6 mouse beta cell line (FIGS. 3A and 3B).

[3] = system: Alpha TC1 mouse alpha cell line; experiment: Luciferase secretion, proglucagon-luciferase (G2) reporter in alpha cells; format: cell-based; settings: glucose 0-300 mg/dL (0-16.7 mM)
Protocol: The preglucagon G^2 construct was introduced into the Alpha TC1 mouse alpha cell line. Cells were stimulated with IBMX, arginine, or potassium chloride (KCl) and varying amounts of glucose in the range of 0-300 mg/dL (0-16.7 mM). Luciferase activity of the supernatant was determined (FIG. 6).

[4] = system: GLUTag mouse L-cell line; experiment: Luciferase secretion, proglucagon-luciferase (G2) reporter in L cells; format: cell-based
Protocol: The proglucagon G^2 construct was also introduced into the GLUTag mouse L-cell line. Cells were stimulated with Forskolin/IBMX, KCl, glipizide, PMA, and L-glutamine. Luciferase activity of the supernatant was determined.

Row | SMILES | Z-score [1] | Z-score With Glucose [1] | Z-score Without Glucose [1] | also measured
1 | C[C@@H]1CC(=O)NN=C1c1ccc(NN=C(C#N)C#N)cc1 [Levosimendan] | 40.7 | – | – | –
2 | CC(C)Cn1c(=O)n(C)c(=O)c2[nH]cnc21 [IBMX, 3-isobutyl-1-methylxanthine] | – | – | – | luciferase activity (luminescence) [2]: increased luminescence in a dose-dependent manner; luciferase secretion (luciferase activity of the supernatant) [3]: no secretion of luciferase
3 | Oc1ccc(OCc2ccccc2)cc1 [Monobenzone] | 38.7 | 31.8 | 5.6 | –
4 | CCN(CC)CCNC(C(=O)OCCC(C)C)c1ccccc1 (stereo not drawn) [Camylofine] | 23.8 | 4.7 | 0.2 | –
5 | N=C(N)NCCC[C@H](N)C(=O)O [arginine] | – | – | – | luciferase secretion (luciferase activity of the supernatant) [3]: secreted luciferase
6 | COc1ccccc1OCCNCC(O)COc1cccc2[nH]c3ccccc3c12 (stereo not drawn) [Carvedilol] | – | – | 1.5 | –
7 | CC(=O)[C@@]1(O)CC[C@H]2[C@@H]3CCC4=CC(=O)CC[C@]4(C)[C@H]3CC[C@@]21C [Hydroxyprogesterone] | – | 18.3 | 2.7 | Z-score Δ ([1]; difference of Z-score with and without glucose): 15.6
8 | Cc1cnc(C(=O)NCCc2ccc(S(=O)(=O)NC(=O)NC3CCCCC3)cc2)cn1 [glipizide] | – | – | – | luciferase activity (luminescence) [2]: did not increase luciferase activity; luciferase secretion (luciferase activity of the supernatant) [4]: no secretion of luciferase; luciferase secretion ([1]; screen in presence and absence of 100 mg/dL glucose): caused luciferase secretion regardless of the ambient glucose level
9 | CCCCCCCCCCCCCC(=O)O[C@@H]1[C@@H](C)[C@@]2(O)[C@@H](C=C(CO)C[C@]3(O)C(=O)C(C)=C[C@@H]23)[C@@H]2C(C)(C)[C@]12OC(C)=O [PMA, phorbol myristate acetate] | – | – | – | luciferase activity (luminescence) [2]: increased luminescence in a dose-dependent manner; luciferase secretion (luciferase activity of the supernatant) [4]: secreted luciferase
10 | COc1c2ccoc2cc2oc(=O)ccc12 [Bergapten] | – | 20.9 | 2.9 | –
11 | Nc1nc(N)c2nc(-c3ccccc3)c(N)nc2n1 [Triamterene] | 76.3 | – | – | –
12 | Nc1c2c(nc3ccccc13)CCCC2 [Tacrine] | 38.8 | – | – | –
13 | CCCNCC(O)COc1ccccc1C(=O)CCc1ccccc1 (stereo not drawn) [Propafenone] | – | 10.5 | 1.5 | –
14 | CN(C)CC[C@@H](c1ccc(Cl)cc1)c1ccccn1 [(S)-chlorpheniramine] | 31.8 | – | – | –
15 | NC(=O)CC[C@H](N)C(=O)O [L-glutamine] | – | – | – | luciferase secretion (luciferase activity of the supernatant) [4]: no secretion of luciferase
16 | [Cl-].[K+] [KCl, potassium chloride] | – | – | – | luciferase activity (luminescence) [2]: increased luminescence in a dose-dependent manner; luciferase secretion (luciferase activity of the supernatant) [3]: secreted luciferase; luciferase secretion (luciferase activity of the supernatant) [4]: secreted luciferase
17 | CCN(CC)CCOC(=O)C(Cc1cccc2ccccc12)CC1CCCO1 (stereo not drawn) [Nafronyl] | 25.4 | 17.8 | 3.4 | –
18 | OC(CCN1CCCCC1)(c1ccccc1)C1CCCCC1 (stereo not drawn) [Trihexyphenidyl] | 50.5 | – | – | –
19 | O=C(CCCN1CCC2(CC1)C(=O)NCN2c1ccccc1)c1ccc(F)cc1 [Spiperone] | – | 9.0 | −2.8 | –
20 | Cc1ccccc1C(OCCN(C)C)c1ccccc1 (stereo not drawn) [Orphenadrine] | 27.4 | – | – | –
21 | Clc1ccc(Cn2c(CN3CCCC3)nc3ccccc32)cc1 [Clemizole] | – | 12.2 | 0.4 | –
